Assay results published in US20050009862A1, “Method for promoting uninterrupted sleep by administration of trospium chloride” (priority 2003, published 2005).

Experiments:
Type in all cases: in vivo, human
[1] = tested on: Patients with overactive bladder associated with predominant urge incontinence and complaining of frequent wakefulness throughout the night; experiment: Example 2: single dose before sleeping in overactive bladder patients with frequent wakefulness at night; details: 20 mg given 0.5 h before sleeping
Protocol: Patients with overactive bladder associated with predominant urge incontinence and complaining of frequent wakefulness throughout the night due to repeated urges to urinate are given 20 mg of trospium chloride 0.5 h before sleeping.

[2] = tested on: patients with overactive bladder (OAB) associated with predominant urge incontinence; experiment: Same Phase III study, safety (adverse events, clinical laboratory tests, vital signs, ECG)
Protocol: A multicenter, double-blind, placebo-controlled study of 20 mg, twice-daily trospium chloride for 12 weeks followed by a 9-month, open-label treatment phase in patients with overactive bladder.
Multicenter, parallel, randomized, double-blind, placebo-controlled trial of patients with overactive bladder (OAB) associated with predominant urge incontinence. Patients who were currently receiving OAB drug therapy were to begin treatment after a 3-week washout period that included the 7-day patient urinary diary collection. Patients who were not currently receiving OAB drug therapy (i.e., naive patients) could begin treatment with study medication following their 7-day patient urinary diary collection and continued for a total double-blind treatment duration of 12 weeks.
Patients were randomized on a 1:1 basis to receive either placebo or trospium chloride 20 mg twice daily during the double-blind treatment segment of the study. The randomization schedule for patients was stratified by the mean baseline number of micturitions (i.e., toilet voids) per 24 hours (collected via the patient urinary diary over 7 days); specifically, using the stratified categories of 10 to 15, 16 to 20, and ≧21 mean micturitions per 24 hours. Patients were periodically evaluated during the 12-week treatment segment and were to return on Day 84 for the Week 12 assessments.
Adverse events (AEs), clinical laboratory tests, vital signs, and 12-lead electrocardiograms (ECGs).
The Fisher's Exact test was used to analyze adverse events. Other categorical data were analyzed using the Cochran-Mantel-Haenszel (CMH) procedure with center as the stratification variable. For all continuous data analyses, an analysis of variance (ANOVA) model with center and treatment was used.

[3] = tested on: People complaining of frequent wakefulness throughout the night due to repeated urges to urinate; experiment: Example 3: single dose before sleeping in people with frequent wakefulness at night; details: 20 mg given 1.0 h before sleeping
Protocol: People complaining of frequent wakefulness throughout the night due to repeated urges to urinate are given 20 mg of trospium chloride 1.0 h before sleeping.

[4] = tested on: patients with overactive bladder (OAB) associated with predominant urge incontinence; experiment: Phase III multicenter, double-blind, placebo-controlled 12-week study of trospium chloride 20 mg twice daily (#IP631-003), efficacy from patient urinary diary
Excerpt: A multi-center, parallel, randomized, double-blind, placebo controlled study (#IP631-003) was based on data collected as a result of administering the IUSS during a 12-week^1-clinical trial of patients with overactive bladder (OAB) associated with predominant urge incontinence—for trospium chloride in the United States. For full details on the clinical study ethics, administration, objectives and design, selection of study population, treatments, efficacy and safety variables and statistical methodology please refer to the clinical study protocol #IP631-003 and the ‘Final Report for the Double-Blind Phase’ prepared by Quintiles Inc.
The IUSS (Appendix A) asks patients about their ‘degree of urgency’ of their toilet voids (as meant to describe the urge to urinate). Patients are asked to rate the degree of urgency they felt before reaching the toilet for a toilet void (defined in the study as urination in the toilet). The instructions state that “Sometimes you may feel a very strong urge to urinate, and at other times, you may feel a milder urge prior to the onset of a toilet void. Rate this feeling by circling 0, 1, 2 or 3.” The instructions specify the following four response options: • 0: None—no urgency; • 1: Mild—awareness of urgency, but is easily tolerated and you can continue with your usual activity or tasks; • 2: Moderate—enough urgency discomfort that it interferes with or shortens your usual activity or tasks; and • 3: Severe—extreme urgency discomfort that abruptly stops all activity or tasks.
This single-item Urgency Severity Scale was contained within a ‘Patient Urinary Diary’, which was completed by all patients during four discrete one-week periods in the course of the 12-week double-blind trial (baseline and study treatment weeks 1, 4 and 12). During each of the one-week data collection periods, patients completed the diary every day for a total of seven days. […] In the diary, an urge leak was defined as a leakage due to a very strong need or desire to urinate. A stress leak was defined as being a result of coughing, sneezing, standing, laughing, exercise, or other physical activity/movement exerting pressure on the bladder. In addition, during the last two days of the 7-day diary collection period (days 6 and 7), patients collected and measured all urine volume for each and every toilet void and recorded this within the diary.
The study population for the clinical trial was 523 patients who received at least one dose of the study medication. Patients who entered the trial were required to have overactive bladder, defined as: • Urinary frequency of ≧70 toilet voids per 7 days (i.e. ≧10 toilet voids per day) as recorded in a patient urinary diary during a “washout” period; • Symptoms of urgency (i.e. sudden desire to toilet void); • Pure urge or mixed urinary incontinence with predominant urge incontinence.
Trospium chloride is an anticholinergic agent with predominantly peripheral antimuscarinic activity. Its mechanism enables the detrusor to relax, inhibiting evacuation of the bladder. Patients were randomized on a 1:1 basis to receive either placebo or trospium chloride. Patients receiving trospium chloride took one 20-mg tablet twice daily. Those receiving placebo took one placebo tablet twice daily. The identity of the study medication was blinded.
Patients completed a patient diary on a daily basis during four one-week data collection windows: baseline, week 1, week 4 and week 12. The diary collected the following patient-reported outcome data: • IUSS; • Number of toilet voids; • Number of urge incontinence episodes, and separately, stress incontinence episodes; • Volume voided (mL), collected on the last 2 of 7 days of the 7 day diary.
A multicenter, double-blind, placebo-controlled study of 20 mg, twice-daily trospium chloride for 12 weeks followed by a 9-month, open-label treatment phase in patients with overactive bladder. […]

O=C(O[C@H]1C[C@H]2CC[C@@H](C1)[N+]21CCCC1)C(O)(c1ccccc1)c1ccccc1 [Trospium, 3-alpha-benziloyloxynortropane-8-spiro-1′-pyrrolidinium chloride]
Sleep during the normal sleep period [1]: uninterrupted sleep throughout their normal sleep periods | Overall safety and tolerability ([2]; 20 mg twice daily, 12 weeks): safe and generally well tolerated | Patients with QTcF intervals >500 msec that had increased by >60 msec from baseline ([2]; 1 patient in each treatment group, no clinical signs, resolved at endpoint): 1 patient | Patients in whom study medication was permanently discontinued due to TEAEs (percent) ([2]; 12-week double-blind phase, 20 mg twice daily, placebo 5.7%): 8.8% | Patients in whom study medication was permanently discontinued due to TEAEs (number) ([2]; 12-week double-blind phase, 20 mg twice daily, placebo 15 patients): 23 patients | Patients who experienced an adverse event leading to death ([2]; person, hemorrhagic stroke on Day 57, assessed as remotely related to study medication): 1 patient | Most common TEAEs that led to discontinuation of study medication ([2]; trospium group): dry mouth, constipation, abdominal pain NOS, and urinary retention | Sleep during the normal sleep period [3]: uninterrupted sleep throughout their normal sleep periods | Mean change from baseline: Number of toilet voids/24 hours ([4]; Week 12, 20 mg oral tablet twice daily, N = 253, ITT:LOCF, placebo −1.29, P <0.0001): −2.37 | Mean change from baseline: Volume voided (mL) per toilet void/24 hours ([4]; Week 12, 20 mg twice daily, N = 248, ITT:LOCF, placebo 7.72, P <0.0001): 32.14 mL | Mean change from baseline: Urgency severity score associated with toilet voids (IUSS, 0-3) ([4]; Week 12, 20 mg twice daily, N = 253, ITT:LOCF, placebo −0.04, P 0.0001): −0.22 | Mean change from baseline: Number of nocturnal toilet voids/24 hours ([4]; Week 12, 20 mg twice daily, N = 253, ITT:LOCF, placebo −0.29, P 0.0255): −0.47 | Mean change from baseline: Number of urge incontinence episodes/24 hours ([4]; Week 12, 20 mg twice daily, N = 253, ITT:LOCF, placebo −1.98, P 0.0118 (ranked ANOVA)): −2.20 | Change in average urgency severity per 24 hours compared with placebo ([4]; at Weeks 1, 4, and 12): significant decrease | Change in average volume voided compared with placebo ([4]; at Weeks 1, 4, and 12): statistically significant increase | Change in average number of toilet voids per 24 hours compared with placebo ([4]; at Weeks 1, 4, and 12, improvement = decrease): statistically significant (p≦0.05) improvement | Change in average number of urge incontinence episodes per 24 hours compared with placebo ([4]; at Weeks 4 and 12, improvement = decrease): statistically significant (p≦0.05) improvement | Onset of action during Week 1 for effect on toilet voids, urge incontinence episodes, and total micturitions per 24 hours ([4]; consistently significant effects by Day 7): superior when compared with placebo | Average reduction in mean number of urgency episodes (IUSS severity >0) ([4]; over the 12-week trial, baseline mean 11.29, placebo reduction 1.08, p<0.01): 2.30 urgency episodes
